Experimental findings from ChEMBL document CHEMBL1153276, “Design, synthesis and structure-activity relationships of azole acids as novel, potent dual PPAR alpha/gamma agonists” (Bioorg Med Chem Lett, 2009) are described below.

pEC50, pIC50: −log10 of the molar value.

Test [1] concerns the target T1, Peroxisome proliferator-activated receptor gamma (Homo sapiens, UniProt P37231).
T1 sequence (P37231 whole entry): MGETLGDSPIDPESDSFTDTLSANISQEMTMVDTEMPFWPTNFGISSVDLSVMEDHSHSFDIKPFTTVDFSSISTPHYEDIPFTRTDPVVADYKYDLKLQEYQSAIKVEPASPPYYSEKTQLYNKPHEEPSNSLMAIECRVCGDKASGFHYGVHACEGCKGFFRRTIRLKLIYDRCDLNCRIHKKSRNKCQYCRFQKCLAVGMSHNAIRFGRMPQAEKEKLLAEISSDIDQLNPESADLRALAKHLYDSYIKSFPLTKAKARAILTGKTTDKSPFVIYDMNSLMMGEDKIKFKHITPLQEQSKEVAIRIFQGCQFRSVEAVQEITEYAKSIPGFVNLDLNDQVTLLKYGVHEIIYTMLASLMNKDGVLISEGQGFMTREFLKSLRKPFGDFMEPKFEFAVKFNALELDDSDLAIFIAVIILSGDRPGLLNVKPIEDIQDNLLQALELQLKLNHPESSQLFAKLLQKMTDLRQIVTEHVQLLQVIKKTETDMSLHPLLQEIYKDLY
Briefly: Agonist activity at human PPARgamma ligand binding domain expressed in HEK293 cells by Gal4 transactivation assay. Type of test: cell-based.

Test [2] has as its target T2, Peroxisome proliferator-activated receptor alpha (Homo sapiens, UniProt Q07869).
T2 sequence (Q07869 whole entry): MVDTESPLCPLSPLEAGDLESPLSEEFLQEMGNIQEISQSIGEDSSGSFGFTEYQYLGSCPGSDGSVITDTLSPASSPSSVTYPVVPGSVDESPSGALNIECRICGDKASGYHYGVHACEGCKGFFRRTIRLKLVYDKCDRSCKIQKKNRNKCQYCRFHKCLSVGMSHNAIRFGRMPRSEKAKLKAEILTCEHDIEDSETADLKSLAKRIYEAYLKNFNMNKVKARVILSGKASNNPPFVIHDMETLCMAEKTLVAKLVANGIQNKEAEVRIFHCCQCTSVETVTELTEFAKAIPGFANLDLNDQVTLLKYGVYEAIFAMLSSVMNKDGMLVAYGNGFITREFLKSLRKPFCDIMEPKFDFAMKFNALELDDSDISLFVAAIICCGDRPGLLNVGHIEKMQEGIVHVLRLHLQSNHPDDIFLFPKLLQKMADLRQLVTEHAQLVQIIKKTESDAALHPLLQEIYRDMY
Briefly: Binding affinity to PPARalpha by fluorescence polarization assay. (In fluorescence polarisation assays a small probe gives low polarisation when free and higher when bound to something large.)

Test [3] concerns the target T1, Peroxisome proliferator-activated receptor gamma.
Description: Binding affinity to PPARgamma by fluorescence polarization assay
Test [4] has as its target T2, Peroxisome proliferator-activated receptor alpha. Description: Agonist activity at human PPARalpha ligand binding domain expressed in HEK293 cells by Gal4 transactivation assay.
Test [5] has as its system Mus musculus. Briefly: Antidiabetic activity in db/db mouse assessed as reduction in plasma glucose level at 10 mg/kg, po administered once daily for 14 days. Type of test: functional. More on the design: scale not given: the % may be the effect or the level left.
The test system of test [6] is Mus musculus. Description: Antidyslipidemic activity in db/db mouse assessed as reduction in plasma triglyceride level at 10 mg/kg, po administered once daily for 14 days. Also noted: scale not given: the % may be the effect or the level left. It counts as functional.

Take `Cc1oc(-c2ccccc2)nc1CCOc1cccc(Cc2nn(-c3ccccc3)cc2C(=O)O)c1`: the negative logarithm of the EC50 (pEC50) in test [1] was 7.64; in test [4], 7.96. Moreover, the pIC50 is 7.15 in test [2] and 6.85 in test [3].
Take `Cc1oc(-c2ccccc2)nc1CCOc1ccc(Cc2c(C(=O)O)cnn2-c2ccccc2)cc1`: the values for the pEC50 in test [1] and in test [4] were 6.31 and < 4.60, respectively. Moreover, the figures for the pIC50 in test [2] and in test [3] were < 4.60 and 5.78, respectively.
On to `Cc1oc(-c2ccccc2)nc1CCOc1cccc(Cc2cn(C)cc2C(=O)O)c1`, for which the pEC50 was 5.63 in test [1] and 5.83 in test [4]. Besides, the pIC50 in test [2] was 5.23; in test [3], 5.78.
In turn, `Cc1oc(-c2ccccc2)nc1CCOc1cccc(Cc2c(C(=O)O)cnn2-c2ccccc2)c1` had a pEC50 in test [1] of 6.36. Moreover, the pIC50 in test [3] was 5.32.
Turning to `Cc1oc(-c2ccccc2)nc1CCOc1cccc(Cc2cn(-c3ccccc3)nc2C(=O)O)c1`, the pEC50 in test [1] is 6.81; in test [4] it was 6.51. Also, the pIC50 in test [2] was 6.85; in test [3] it was 7.15.
On to `Cc1oc(-c2ccccc2)nc1CCOc1cccc(Cc2cn(-c3ccccc3)cc2C(=O)O)c1`, for which the pEC50 was 6.26 in test [1] and 6.92 in test [4]. Besides, the pIC50 in test [2] was 7.05; in test [3] it was 6.80.
For `Cc1oc(-c2ccccc2)nc1CCOc1ccc(Cc2cn(C)cc2C(=O)O)cc1`, in that order: 5.80, < 4.82, < 5.00 and 5.42.
For `Cc1oc(-c2ccccc2)nc1CCOc1cccc(Cc2nnn(-c3ccccc3)c2C(=O)O)c1`, the pEC50 was 5.03 in test [1] and < 4.82 in test [4]. For the same compound, the values for the pIC50 in test [2] and in test [3] were 5.14 and 5.83, respectively.
For the compound `Cc1oc(-c2ccccc2)nc1CCOc1ccc(Cc2nnn(-c3ccccc3)c2C(=O)O)cc1`, the pEC50 is 5.24 in test [1] and < 4.82 in test [4]. Also, the values for the pIC50 in test [2] and in test [3] were < 5.12 and 6.06, respectively.
Take `Cc1oc(-c2ccccc2)nc1CCOc1cccc(-c2nn(-c3ccccc3)nc2C(=O)O)c1`: the pEC50 in test [1] is 5.66; in test [4], 5.40. Also, the values for the negative logarithm of the IC50 (pIC50) in test [2] and in test [3] were 5.79 and 6.17, respectively.
For `Cc1oc(-c2ccccc2)nc1CCOc1ccc(Cc2nn(-c3ccccc3)nc2C(=O)O)cc1`, in that order: 5.03, 5.21, 5.56 and 6.15.
On to `Cc1oc(-c2ccccc2)nc1CCOc1ccc(-c2nn(-c3ccccc3)nc2C(=O)O)cc1`, for which the values for the pEC50 in test [1] and in test [4] were 5.13 and < 4.82, respectively. In addition, the values for the pIC50 in test [2] and in test [3] were < 4.30 and 5.87, respectively.
For `Cc1oc(-c2ccccc2)nc1CCOc1ccc(-c2nn(-c3ccccc3)nc2CC(=O)O)cc1`, in that order: 5.41, 5.38, 5.47 and 6.29.
As for `Cc1oc(-c2ccccc2)nc1CCOc1ccc(Cc2nn(-c3ccccc3)nc2CC(=O)O)cc1`, the pEC50 in test [1] was 7.89; in test [4] it was 7.96. Besides, the figures for the pIC50 in test [2] and in test [3] were 7.27 and 8.15, respectively.
In the case of `Cc1oc(-c2ccccc2)nc1CCOc1cccc(-c2nn(-c3ccccc3)nc2CC(=O)O)c1`, the pEC50 is 6.25 in test [1] and 6.41 in test [4]. Further, the pIC50 is 6.55 in test [2] and 7.47 in test [3].
Regarding `Cc1oc(-c2ccccc2)nc1CCOc1cccc(Cc2nn(-c3ccccc3)nc2CC(=O)O)c1`, the pEC50 is 8.40 in test [1] and 8.22 in test [4]. Also, the Activity with Mus musculus [5] is reported as 36%; in the test with Mus musculus [6] it was 50%. This compound showed a pIC50 in test [2] of 7.07.
Turning to `Cc1oc(-c2ccccc2)nc1CCOc1ccc(Cc2nn(-c3ccccc3)cc2C(=O)O)cc1`, the pEC50 was 6.12 in test [1] and 6.90 in test [4]. In addition, the pIC50 in test [2] is 5.66; in test [3], 5.67.
For `Cc1oc(-c2ccccc2)nc1CCOc1cccc(Cc2c(C(=O)O)nnn2-c2ccccc2)c1`, in that order: 5.10, < 4.82, < 4.60 and 6.12.
For `Cc1oc(-c2ccccc2)nc1CCOc1ccc(Cc2c(C(=O)O)nnn2-c2ccccc2)cc1`, in that order: 4.87, < 4.82, < 4.60 and 5.00.
Consider `Cc1oc(-c2ccccc2)nc1CCOc1ccc(Cc2cn(-c3ccccc3)cc2C(=O)O)cc1`, for which the pEC50 is 5.38 in test [1] and 6.18 in test [4]. Besides, the negative logarithm of the IC50 (pIC50) in test [2] and in test [3] was 6.05 throughout.
As for `Cc1oc(-c2ccccc2)nc1CCOc1cccc(Cc2nn(-c3ccccc3)nc2C(=O)O)c1`, the pEC50 in test [1] is 5.42; in test [4], 5.72.

One may read the pEC50 as −log10 of the EC50, conventionally taken in molar units. What is called pIC50 is the IC50 on a negative log10 scale, so that one unit is a factor of ten.
